ChEMBL document CHEMBL1201862, “PubChem BioAssay data set” (2004)
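1) Cells in 96-well plates. 2) Compound, 48 h, 5 concentrations. 3) Linear interpolation between surrounding doses. 4) Unreached endpoint = highest concentration. GI50: concentration for 50% inhibition of growth.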 The source made the active and inactive calls. Rule as the data show it: active = GI50 up to about 1.1 µM and inactive = higher.

Legend:
Assay in all cases: NCI-60 cell line screen, 48 h
U-251 = system: U-251
HOP-92 = system: HOP-92
SK-MEL-2 = system: SK-MEL-2
SK-OV-3 = system: SK-OV-3
IGROV-1 = system: IGROV-1
786-0 = system: 786-0
TK-10 = system: TK-10
RPMI-8226 = system: RPMI-8226
SN12C = system: SN12C
SF-268 = system: SF-268
LOX IMVI = system: LOX IMVI
KM12 = system: KM12
SR = system: SR
DMS-114 = system: DMS-114
HCT-15 = system: HCT-15
COLO 205 = system: COLO 205
SNB-75 = system: SNB-75
PC-3 = system: PC-3
NCI/ADR-RES = system: NCI/ADR-RES
DU-145 = system: DU-145

Structure (SMILES) | GI50 (U-251) | GI50 (HOP-92) | GI50 (SK-MEL-2) | GI50 (SK-OV-3) | GI50 (IGROV-1) | GI50 (786-0) | GI50 (TK-10) | GI50 (RPMI-8226) | GI50 (SN12C) | GI50 (SF-268) | GI50 (LOX IMVI) | GI50 (KM12) | GI50 (SR) | GI50 (DMS-114) | GI50 (HCT-15) [µM] | GI50 (COLO 205) | GI50 (SNB-75) | GI50 (PC-3) | GI50 (NCI/ADR-RES) | GI50 (DU-145)
N#Cc1cccnc1Cl | > 100 µM (inactive) | > 100 µM (inactive) | > 100 µM (inactive) | > 100 µM (inactive) | > 100 µM (inactive) | > 100 µM (inactive) | > 100 µM (inactive) | > 100 µM (inactive) | > 100 µM (inactive) | > 100 µM (inactive) | > 100 µM (inactive) | > 100 µM (inactive) | > 100 µM (inactive) | > 100 µM (inactive) | > 100 | > 100 µM (inactive) | > 76.6 µM (inactive) | – | – | –
CCCCCCCCCCC(O)CCCCCCC(=O)O (stereo not drawn) | 14.9 µM (inactive) | 18.1 µM (inactive) | 47.9 µM (inactive) | 78.3 µM (inactive) | 18.2 µM (inactive) | 24.5 µM (inactive) | 65.9 µM (inactive) | 10.2 µM (inactive) | 21.1 µM (inactive) | 77.4 µM (inactive) | 15.8 µM (inactive) | 16.3 µM (inactive) | 15.1 µM (inactive) | 23.1 µM (inactive) | – | 15.7 µM (inactive) | 42.5 µM (inactive) | – | – | –
CC(C)Cc1ccc(C(C)/C=C2\CCC(CN(C)C)C2=O)cc1 (stereo not drawn) | 16.7 µM (inactive) | 19 µM (inactive) | 14.4 µM (inactive) | 19.5 µM (inactive) | 9.73 µM (inactive) | 2.96 µM (inactive) | 9.23 µM (inactive) | 1.56 µM (inactive) | 10 µM (inactive) | 11.6 µM (inactive) | 6.97 µM (inactive) | 5.27 µM (inactive) | 3.2 µM (inactive) | 19.2 µM (inactive) | 9.18 | 11.6 µM (inactive) | 14.1 µM (inactive) | 10.5 µM (inactive) | 5.89 µM (inactive) | 11.4 µM (inactive)
CC(=O)OCC(=O)[C@@]1(O)CC[C@H]2[C@@H]3C[C@H](C)C4=CC(=O)C=C[C@]4(C)[C@@]3(F)[C@@H](O)C[C@@]21C | 60.4 µM (inactive) | > 100 µM (inactive) | > 100 µM (inactive) | 0.0131 µM (active) | > 100 µM (inactive) | > 100 µM (inactive) | > 100 µM (inactive) | 23.7 µM (inactive) | – | > 100 µM (inactive) | > 100 µM (inactive) | > 100 µM (inactive) | 96.4 µM (inactive) | > 100 µM (inactive) | > 100 | > 100 µM (inactive) | 73.8 µM (inactive) | – | – | –
CCOC(=O)C(=O)C=P(c1ccccc1)(c1ccccc1)c1ccccc1 | > 100 µM (inactive) | > 100 µM (inactive) | > 100 µM (inactive) | > 100 µM (inactive) | > 100 µM (inactive) | > 100 µM (inactive) | > 100 µM (inactive) | > 100 µM (inactive) | > 100 µM (inactive) | > 100 µM (inactive) | > 100 µM (inactive) | > 100 µM (inactive) | > 100 µM (inactive) | > 100 µM (inactive) | > 100 | > 100 µM (inactive) | > 100 µM (inactive) | – | – | –
C/C(=N\NS(=O)(=O)c1ccc(C)cc1)c1ccc[n+]([O-])n1 | > 100 µM (inactive) | 32.3 µM (inactive) | – | > 100 µM (inactive) | > 100 µM (inactive) | > 100 µM (inactive) | – | 36.8 µM (inactive) | > 100 µM (inactive) | > 100 µM (inactive) | – | > 100 µM (inactive) | 36.7 µM (inactive) | > 100 µM (inactive) | > 100 | – | 37.9 µM (inactive) | – | – | –
Cc1c(C(=O)/C=C/c2cccc3ccccc23)[n+]([O-])c2ccccc2[n+]1[O-] | 14.8 µM (inactive) | 10.1 µM (inactive) | – | 17.3 µM (inactive) | 12.9 µM (inactive) | 12.6 µM (inactive) | 20.3 µM (inactive) | 12 µM (inactive) | 14.1 µM (inactive) | 14.7 µM (inactive) | 7.93 µM (inactive) | 14 µM (inactive) | 12.7 µM (inactive) | 4.85 µM (inactive) | 12.7 | 13.9 µM (inactive) | 13 µM (inactive) | – | – | –
COC1C(OC(=O)/C=C/C=C/C=C/C=C\C(=O)O)CCC2(CO2)C1C1(C)OC1CC=C(C)C (stereo not drawn) | > 100 µM (inactive) | > 100 µM (inactive) | > 100 µM (inactive) | > 89.7 µM (inactive) | > 100 µM (inactive) | > 100 µM (inactive) | > 100 µM (inactive) | > 100 µM (inactive) | > 100 µM (inactive) | > 100 µM (inactive) | > 100 µM (inactive) | > 100 µM (inactive) | > 100 µM (inactive) | > 100 µM (inactive) | > 100 | > 100 µM (inactive) | > 100 µM (inactive) | > 100 µM (inactive) | > 100 µM (inactive) | > 100 µM (inactive)
C[C@H](CCC1SC1(C)C)C1CCC2(C)C3=C(CC[C@]12C)[C@@]1(C)CC[C@H](O)C(C)(C)C1CC3 (stereo partly drawn) | > 10 µM (inactive) | > 100 µM (inactive) | > 100 µM (inactive) | > 100 µM (inactive) | > 100 µM (inactive) | > 100 µM (inactive) | > 100 µM (inactive) | > 100 µM (inactive) | > 100 µM (inactive) | > 100 µM (inactive) | > 100 µM (inactive) | > 100 µM (inactive) | > 100 µM (inactive) | > 100 µM (inactive) | > 100 | > 100 µM (inactive) | 75.2 µM (inactive) | – | – | –
C[C@@]1(Cc2ccccc2)C(=O)N2[C@@H](CO)C(c3ccccc3)O[C@]2(C)c2ccccc21 (stereo partly drawn) | > 100 µM (inactive) | > 100 µM (inactive) | > 100 µM (inactive) | > 100 µM (inactive) | > 100 µM (inactive) | 52.7 µM (inactive) | > 100 µM (inactive) | 76 µM (inactive) | – | > 100 µM (inactive) | > 100 µM (inactive) | > 100 µM (inactive) | > 100 µM (inactive) | > 100 µM (inactive) | > 100 | > 100 µM (inactive) | 32 µM (inactive) | – | – | –
